Data from US20080199546A1, “Anti-resorptive and bone building dietary supplements and methods of use” (priority 2006, published 2008).

Columns and labels:
RANK-L = assay: Production/release of RANK-L protein (ELISA, IL-1b stimulated MG-63 cells); assay type: cell-based; conditions: Homo sapiens, MG-63, 1 μg/ml
Description: Weigh between 150 to 250 mg of each ingredient into a 15 ml conial bottomed tube. […] For solvent control, mix 1.5 ml DMSO, 0.9 ml ethanol, and 0.6 ml water. Vortex thoroughly. Sonicate for 10 minute in water bath, room temperature. Vortex thoroughly again. Dilute ingredient stocks in fresh phenol red-free media. Human osteosarcoma cell line, MG-63 (ATCC# CRL-1427), is maintained in phenol-red containing MEM (as recommended by ATCC) at 37° C. and 5% CO2. Twenty-four hours prior to experimentation, 3×10^5 cells are seeded in 12-well plates in phenol-red free MEM. Spent medium is removed from wells and MG-63 cells (ATCC # CRL-1427) are pretreated with 1, 0.1, 0.01 μg/ml of each test ingredient or 30 ng/ml TGF-beta (+ control) for 4 hours at 37° C., 5% CO2. Stock solution of TGF-beta is 30 μg/ml (from R&D Systems, cat# 100-B-001). After pretreatment incubation period, […] IL-1b (Calbiochem (catalog # 407615), and stock solution at 10 μg/ml, cat # 407615) were added to the cell cultures for 18 hours at 37° C. Supernatant media from the treated and stimulated cells were removed and total RANK-L proteins measured using RANK-L ELISA (in triplicate) as described by manufacturer (from APOTECH, catalog # APO-54N-016-k101). The resulting protein quantity was compared to that of media (null) treated stimulated cells to determine percent decrease in total RANK-L protein.

BMP-2 promoter = assay: BMP2 promoter assay (luciferase reporter); assay type: cell-based, murine; conditions: summary of Table 1
[1] = test system: MMP9 (type IV collagenase); assay: MMP9 (type IV collagenase) protein expression, keratinocyte/fibroblast co-culture stimulated with IL-1B; assay type: cell-based; conditions: IL1B 10 ng/ml alone (stimulus); untreated = 1.0
Description: Keratinocytes and fibroblasts were co-cultured in DMEM containing 0.5% BSA. Co-cultures were exposed to various concentrations of punicalagins (ranging from 0.1%-10%) extracted from pomegranates. Specifically, the ability of the pomegranate extracts to inhibit type IV collagenase protein (matrix metalloproteinase-9/MMP9) expression at concentrations of 1.0 μg/ml, 10 μg/ml, and 100 μg/ml were tested. Following exposure to the pomegranate extracts, the co-culture cells were stimulated with 10 ng/ml of IL-1B for 18 hours. Following stimulation with IL-1B for 18 hours, and MMP9 concentration was determined in the media as shown below in Table 8.

RANK-L gene expression = RANK-L gene expression (qPCR, IL-1b stimulated MG63 cells); assay type: cell-based, human; conditions: IL1B 3 ng/ml alone (stimulus)
Description: Punicalagin test samples are extracted from pomegranates, including from pomegranate peels, skins, fleshy fruit, and seeds using 100% DMSO at 100 mg/ml. Particulate matter in the extraction is not removed. The punicalagin test samples are diluted in MEM without phenol red (estrogenic) and 0.1% FBS to lower background signaling to ten times the final concentrations. Final DMSO concentrations are kept below 0.2% and are kept constant during treatments. DMSO solvent control is used in the untreated group.
MG63 cells (ATCC # […]), a human-derived osteosarcoma cell line, are plated at 200,000 cells per well in a 12 well plate with phenol red free MEM at 10% FBS. The next day the media is changed to phenol red free MEM at 0.1% FBS. The cells are incubated for four hours and then treated with punicalagin test samples at concentrations of 1, 10, and 100 μg/ml.
After four hours of treatment, IL-1b (Calbiochem (catalog # 407615), stock solution at 10 μg/ml, cat # 407615) are added to a final concentration of 3 ng/mL. […]
After 16 hours the cells are lysed and the RNA is extracted from the cells with the RNasy purification kit (Qiagen). RNA is reverse transcribed to cDNA and quantified by qPCR using 2-step qRT-PCR reagents (Invitrogen), and 4 μL of purified RNA. […]
RANK-L and GAPDH gene expression Ct data are obtained. RNA is quantified with adjustments for GAPDH expression. […]

Compound	inhibition at 1 µg/mL (RANK-L)	Activation of the BMP-2 promoter (in words) (BMP-2 promoter)	MMP9 expression (fold of untreated) [1]	RANK-L Expression (fold increase) (RANK-L gene expression)
CC(C)Oc1ccc2c(=O)c(-c3ccccc3)coc2c1 [I, 7-isopropoxy isoflavone]	0.8 ± 0.3%	most potent activators	–	–
O=c1c(O)c(-c2ccc(O)c(O)c2)oc2cc(O)cc(O)c12 [Q, Quercetin]	–	most potent activators	–	–
IL1B: IL-1b (Calbiochem), stimulus of RANK-L and MMP9 expression	–	–	1.65	3.3 ± 0 fold increase
